Legend:
[1] = test system: subject having or suspected of having the polyQ tract expansion disease HD; assay: Oral carbenoxolone in subjects having or suspected of having HD; type: in vivo, human; settings: about 100-700 mg/day
Protocol: The carbenoxolone is administered orally in tablet form, for example, as carbenoxolone disodium salt. The dosage is within the range of about 100-700 mg/day, for example at about 150 mg/day, about 300 mg/day, or about 600 mg/day. […] Such monitoring includes measuring cognitive and motor function in the subject, and/or determining whether a slowing or reversal of a personality change commonly associated with HD is observable. In some instances, the monitoring includes measuring the aggregation of Htt protein, the number or size of inclusion bodies, and/or brain tissue homeostasis (e.g. detection of improved survival of neuronal cells and/or reduction in astrocytes). […] After a period of time sufficient for a desired change, e.g. an amelioration in an HD symptom, to manifest, the subject is then monitored for such a change. For example, the subject, in some embodiments, is monitored for cognitive function, for example, within a time frame of about a week to about 6 months (e.g., about one month or about two months) after administration is commenced. […] For example, in some embodiments, the dose may be increased from about 150 mg/day to about 300 mg/day. In some embodiments, the subject is monitored again for symptoms after dose adjustment and, if the symptoms persist at the same severity level, the dose is increased further. […]

HD model strain mice = assay: Morris water maze assay in HD model strain mice; type: in vivo, mouse; settings: treated from 4 weeks, tested at 8 weeks of age, vs untreated HD mice
Description: Mouse strains: Mouse strain names provided herein adhere to the Guidelines for Nomenclature of Mouse and Rat Strains, Revised October 2011, International Committee on Standardized Genetic Nomenclature for Mice, accessible at www.informatics.jax.org/mgihome/nomen/strains.shtml. Official gene symbols, or, where appropriate, official mouse strain names of the Jackson Laboratory (www.jax.org, e.g., the Jackson Laboratory Mice Database at jaxmice.jax.org) are used. There are numerous HD mouse strains suitable for candidate compound or nucleic acid construct screening, and for pre-clinical evaluations of candidates for the treatment of HD such as the HD model strains R6/2, R6/1, N171-82Q, CAG140, HdhQ111, BACHD, and CAG150 (Crook Z R, Housman D (2011) Huntington's disease: can mice lead the way to treatment? Neuron. 69:423-35; the entire contents of which are incorporated herein by reference). The HD model strains differ in their manifestations and time line of HD-like symptoms, e.g., motor and cognitive dysfunctions. […]
Morris water maze assay: The water maze assay measures spatial learning in mice. […] The sixth day has a single-trial probe test without the platform, and the time spent in each quadrant is recorded. […] The navigation of the mice is tracked by video camera, and the escape latency to the platform is recorded. […]

Structure (SMILES): CC1(C)[C@@H](OC(=O)CCC(=O)O)CC[C@]2(C)[C@H]3C(=O)C=C4[C@@H]5C[C@@](C)(C(=O)O)CC[C@]5(C)CC[C@@]4(C)[C@]3(C)CC[C@@H]12 [Carbenoxolone]
- HD symptoms (cognition, motor function, personality change) [1]: improvement of at least some HD symptoms
- Impairment of cognitive capabilities (latency to escape, water maze) (HD model strain mice): lesser degree of impairment

— patent publication US20130303562A1, “CHEMICAL AND RNAI SUPPRESSORS OF NEUROTOXICITY IN HUNTINGTON'S DISEASE” (priority 2010, published 2013)
